Patent publication US10647713B2 (Nimbus Lakshmi, Inc., priority 2016, dated 2020)

Biological target: human TYK2 (JH2domain-pseudokinase) (Homo sapiens (Human), UniProt P29597)
Assay: TYK2 JH2 Domain Binding Assay (KINOMEscan, DiscoveRx)
Conditions: 11-point dilution, duplicate
How it was run: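 Kd from duplicate 11-point 3-fold dilutions starting at 30,000 nM, fitted by Hill equation with slope fixed at −1. Compounds (final 0.9% DMSO) displace DNA-tagged HEK293-expressed TYK2 JH2 fusion (<0.1 nM) from ligand-coated beads over 1 h at room temperature; eluted kinase read by qPCR.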

Chain of human TYK2 (JH2domain-pseudokinase) (P29597 556-888): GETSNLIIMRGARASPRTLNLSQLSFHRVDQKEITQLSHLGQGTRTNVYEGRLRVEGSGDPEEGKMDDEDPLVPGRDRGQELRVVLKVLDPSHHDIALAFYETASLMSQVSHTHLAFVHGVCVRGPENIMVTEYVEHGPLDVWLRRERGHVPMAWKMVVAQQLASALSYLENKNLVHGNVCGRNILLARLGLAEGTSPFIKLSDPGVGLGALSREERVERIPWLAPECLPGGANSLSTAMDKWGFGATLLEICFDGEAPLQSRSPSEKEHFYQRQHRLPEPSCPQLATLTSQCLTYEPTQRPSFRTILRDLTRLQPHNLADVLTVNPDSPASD

CN(c1cc(C(F)F)ccc1Nc1cc(Nc2cccc(C#N)n2)nc2[nH]c(C(F)F)nc12)S(C)(=O)=O [I-178, N-(2-((5-((6-cyanopyridin-2-yl)amino)-2-(difluoromethyl)-3H-imidazo[4,5-b]pyridin-7-yl)amino)-5-(difluoromethyl)phenyl)-N-methylmethanesulfonamide]
Kd: 0.1 to 0.5 nM

CN(c1ccccc1Nc1cc(Nc2cccc(C#N)n2)nc2[nH]c(C(F)F)nc12)S(=O)(=O)C1CC1 [I-179]
Kd: 0.1 to 0.5 nM

Cc1nc2c(Nc3ccccc3N(C)S(=O)(=O)C3CC3)cc(Nc3cccc(C#N)n3)nc2[nH]1 [I-180, N-(2-((5-((6-cyanopyridin-2-yl)amino)-2-methyl-3H-imidazo[4,5-b]pyridin-7-yl)amino)phenyl)-N-methylcyclopropanesulfonamide]
Kd: 0.1 to 0.5 nM

CCS(=O)(=O)N(C)c1ccccc1Nc1cc(Nc2cccc(C#N)n2)nc2[nH]c(C)nc12 [I-181, N-(2-((5-((6-cyanopyridin-2-yl)amino)-2-methyl-3H-imidazo[4,5-b]pyridin-7-yl)amino)phenyl)-N-methylethanesulfonamide]
Kd: 0.1 to 0.5 nM

CN(c1cc(C2CCOCC2)ccc1Nc1cc(NC(=O)C2CC2)nc2[nH]c(C(F)F)nc12)S(C)(=O)=O [I-182, N-(2-(difluoromethyl)-7-((2-(N-methylmethylsulfonamido)-4-(tetrahydro-2H-pyran-4-yl)phenyl)amino)-3H-imidazo[4,5-b]pyridin-5-yl)cyclopropanecarboxamide]
Kd: 0.1 to 0.5 nM

CN(c1cc(C2CC2)ccc1Nc1cc(NC(=O)C2CC2)nc2[nH]c(C(F)F)nc12)S(C)(=O)=O [I-183, N-(7-((4-cyclopropyl-2-(N-methylmethylsulfonamido)phenyl)amino)-2-(difluoromethyl)-3H-imidazo[4,5-b]pyridin-5-yl)cyclopropanecarboxamide]
Kd: 0.1 to 0.5 nM

Cc1nc2c(Nc3ccc(C4CC4)cc3N(C)S(C)(=O)=O)cc(NC(=O)C3CC3)nc2[nH]1 [I-184, N-(7-((4-cyclopropyl-2-(N-methylmethylsulfonamido)phenyl)amino)-2-methyl-3H-imidazo[4,5-b]pyridin-5-yl)cyclopropanecarboxamidee]
Kd: 0.1 to 0.5 nM

Cc1ccc(Nc2cc(Nc3ccc(Cl)cc3S(C)(=O)=O)c3nc(C(F)F)[nH]c3n2)nn1 [I-185, N7-(4-chloro-2-(methylsulfonyl)phenyl)-2-(difluoromethyl)-N5-(6-methylpyridazin-3-yl)-3H-imidazo[4,5-b]pyridine-5,7-diamine]
Kd: 0.1 to 0.5 nM

Cc1nc2c(Nc3ccc(Cl)cc3S(C)(=O)=O)cc(Nc3cccc(C#N)n3)nc2[nH]1 [I-186, 6-((7-((4-chloro-2-(methylsulfonyl)phenyl)amino)-2-methyl-3H-imidazo[4,5-b]pyridin-5-yl)amino)picolinonitrile]
Kd: 0.1 to 0.5 nM

Cc1cc(-c2ccc(Nc3cc(NC(=O)C4CC4)nc4[nH]c(C(F)F)nc34)c(N(C)S(C)(=O)=O)c2)nn1C [I-187, N-(2-(difluoromethyl)-7-((4-(1,5-dimethyl-1H-pyrazol-3-yl)-2-(N-methylmethylsulfonamido)phenyl)amino)-3H-imidazo[4,5-b]pyridin-5-yl)cyclopropanecarboxamide]
Kd: 0.1 to 0.5 nM

Cc1nc2c(Nc3ccc(C4CC4)cc3S(C)(=O)=O)cc(NC(=O)C3CC3)nc2[nH]1 [I-188]
Kd: 0.1 to 0.5 nM

Cc1ccc(Nc2cc(Nc3ccc(Cl)cc3S(C)(=O)=O)c3nc(C)[nH]c3n2)nn1 [I-189, N7-(4-chloro-2-(methylsulfonyl)phenyl)-2-methyl-N5-(6-methylpyridazin-3-yl)-3H-imidazo[4,5-b]pyridine-5,7-diamine]
Kd: 0.1 to 0.5 nM

CCS(=O)(=O)N(C)c1ccccc1Nc1cc(Nc2cccc(C#N)n2)nc2[nH]c(C(F)F)nc12 [I-190, N-(2-((5-((6-cyanopyridin-2-yl)amino)-2-(difluoromethyl)-3H-imidazo[4,5-b]pyridin-7-yl)amino)phenyl)-N-methylethanesulfonamide]
Kd: > 10 nM

CS(=O)(=O)c1cc(Cl)ccc1Nc1cc(Nc2cccc(C#N)n2)nc2[nH]c(C(F)F)nc12 [I-191, 6-((7-((4-chloro-2-(methylsulfonyl)phenyl)amino)-2-(difluoromethyl)-3H-imidazo[4,5-b]pyridin-5-yl)amino)picolinonitrile]
Kd: 0.5 to 1 nM

Cc1nc2c(Nc3ccc(Cl)cc3S(C)(=O)=O)cc(NC(=O)[C@H]3C[C@H]3F)nc2[nH]1 [I-192, (1R,2R)—N-(7-((4-chloro-2-(methylsulfonyl)phenyl)amino)-2-methyl-3H-imidazo[4,5-b]pyridin-5-yl)-2-fluorocyclopropane-1-carboxamide]
Kd: 1 to 10 nM

Cc1nc2c(Nc3ccc(-c4cc(C)n(C)n4)cc3N(C)S(C)(=O)=O)cc(NC(=O)C3CC3)nc2[nH]1 [I-193, N-(7-((4-(1,5-dimethyl-1H-pyrazol-3-yl)-2-(N-methylmethylsulfonamido)phenyl)amino)-2-methyl-3H-imidazo[4,5-b]pyridin-5-yl)cyclopropanecarboxamide]
Kd: > 10 nM

Cc1nc2c(Nc3ccc(-c4cn(C)nc4C)cc3N(C)S(C)(=O)=O)cc(NC(=O)C3CC3)nc2[nH]1 [I-194, N-(7-((4-(1,3-dimethyl-1H-pyrazol-4-yl)-2-(N-methylmethylsulfonamido)phenyl)amino)-2-methyl-3H-imidazo[4,5-b]pyridin-5-yl)cyclopropanecarboxamide]
Kd: > 10 nM

Cc1nc2c(Nc3ccc(C(F)F)cc3N(C)S(C)(=O)=O)cc(Nc3cccc(C#N)n3)nc2[nH]1 [I-195, N-(2-((5-((6-cyanopyridin-2-yl)amino)-2-methyl-3H-imidazo[4,5-b]pyridin-7-yl)amino)-5-(difluoromethyl)phenyl)-N-methylmethanesulfonamide]
Kd: 0.1 to 0.5 nM

Cc1nc2c(Nc3ccc(C4CCOCC4)cc3N(C)S(C)(=O)=O)cc(NC(=O)C3CC3)nc2[nH]1 [I-196, N-(2-methyl-7-((2-(N-methylmethylsulfonamido)-4-(tetrahydro-2H-pyran-4-yl)phenyl)amino)-3H-imidazo[4,5-b]pyridin-5-yl)cyclopropanecarboxamide]
Kd: 0.5 to 1 nM

Cc1nn(C)cc1-c1ccc(Nc2cc(NC(=O)C3CC3)nc3[nH]c(C(F)F)nc23)c(N(C)S(C)(=O)=O)c1 [I-197, N-(2-(difluoromethyl)-7-((4-(1,3-dimethyl-1H-pyrazol-4-yl)-2-(N-methylmethylsulfonamido)phenyl)amino)-3H-imidazo[4,5-b]pyridin-5-yl)cyclopropanecarboxamide]
Kd: 0.1 to 0.5 nM

Cc1c(-c2ccc(Nc3cc(NC(=O)C4CC4)nc4[nH]c(C(F)F)nc34)c(N(C)S(C)(=O)=O)c2)cnn1C [I-198, N N-(2-(difluoromethyl)-7-((4-(1,5-dimethyl-1H-pyrazol-4-yl)-2-(N-methylmethylsulfonamido)phenyl)amino)-3H-imidazo[4,5-b]pyridin-5-yl)cyclopropanecarboxamide]
Kd: < 0.1 nM

Cc1nc2c(Nc3ccc(-c4cnn(C)c4C)cc3N(C)S(C)(=O)=O)cc(NC(=O)C3CC3)nc2[nH]1 [I-199, N-(7-((4-(1,5-dimethyl-1H-pyrazol-4-yl)-2-(N-methylmethylsulfonamido)phenyl)amino)-2-methyl-3H-imidazo[4,5-b]pyridin-5-yl)cyclopropanecarboxamide]
Kd: < 0.1 nM

[2H]C([2H])([2H])N(c1ccccc1Nc1cc(Nc2cc(C)nc(C)n2)nc2[nH]c(C(F)F)nc12)S(C)(=O)=O [I-200, N-(2-((2-(difluoromethyl)-5-((2,6-dimethylpyrimidin-4-yl)amino)-3H-imidazo[4,5-b]pyridin-7-yl)amino)phenyl)-N-(methyl-d3)methanesulfonamide]
Kd: 0.1 to 0.5 nM

[2H]C([2H])([2H])N(c1ccccc1Nc1cc(Nc2cc(C)nc(C)n2)nc2[nH]c(C)nc12)S(C)(=O)=O [I-201, N-(2-((5-((2,6-dimethylpyrimidin-4-yl)amino)-2-methyl-3H-imidazo[4,5-b]pyridin-7-yl)amino)phenyl)-N-(methyl-d3)methanesulfonamide]
Kd: 0.1 to 0.5 nM

CN(c1cc(C(F)F)ccc1Nc1cc(Nc2ccn(C)n2)nc2[nH]c(C(F)F)nc12)S(C)(=O)=O [I-202, N-(5-(difluoromethyl)-2-((2-(difluoromethyl)-5-((1-methyl-1H-pyrazol-3-yl)amino)-3H-imidazo[4,5-b]pyridin-7-yl)amino)phenyl)-N-methylmethanesulfonamide]
Kd: 0.5 to 1 nM

CS(=O)(=O)c1cc(C2CC2)ccc1Nc1cc(NC(=O)C2CC2)nc2[nH]c(C(F)F)nc12 [I-203]
Kd: 0.1 to 0.5 nM

COc1c(Nc2cc(Nc3cnc(C(C)(C)OC)c(C#N)n3)nc3[nH]c(C)nc23)cccc1-c1nnn(C)n1 [I-204, 6-((7-((2-methoxy-3-(2-methyl-2H-tetrazol-5-yl)phenyl)amino)-2-methyl-3H-imidazo[4,5-b]pyridin-5-yl)amino)-3-(2-methoxypropan-2-yl)pyrazine-2-carbonitrile]
Kd: 0.5 to 1 nM

CS(=O)(=O)c1cc(Cl)ccc1Nc1cc(NC(=O)[C@H]2C[C@H]2F)nc2[nH]c(C(F)F)nc12 [I-205]
Kd: 0.5 to 1 nM

COc1c(Nc2cc(Nc3cc(C(F)(F)F)n(C)n3)nc3[nH]c(C(F)F)nc23)cccc1-c1ncn(C)n1 [I-206, 2-(difluoromethyl)-N7-(2-methoxy-3-(1-methyl-1H-1,2,4-triazol-3-yl)phenyl)-N5-(1-methyl-5-(trifluoromethyl)-1H-pyrazol-3-yl)-3H-imidazo[4,5-b]pyridine-5,7-diamine]
Kd: 1 to 10 nM

Cc1nc2c(Nc3ccc(-c4cncn4C)cc3N(C)S(C)(=O)=O)cc(NC(=O)[C@@H]3C[C@@H]3F)nc2[nH]1 [I-208, (1S,2S)-2-fluoro-N-(2-methyl-7-((4-(1-methyl-1H-imidazol-5-yl)-2-(N-methylmethylsulfonamido)phenyl)amino)-3H-imidazo[4,5-b]pyridin-5-yl)cyclopropane-1-carboxamide]
Kd: 1 to 10 nM

Cc1nc2c(Nc3ccc(-c4cnn(C)c4)cc3N(C)S(C)(=O)=O)cc(NC(=O)[C@@H]3C[C@@H]3F)nc2[nH]1 [I-209, (1S,2S)-2-fluoro-N-(2-methyl-7-((4-(1-methyl-1H-pyrazol-4-yl)-2-(N-methylmethylsulfonamido)phenyl)amino)-3H-imidazo[4,5-b]pyridin-5-yl)cyclopropane-1-carboxamide]
Kd: 0.1 to 0.5 nM
